Measurements as given in patent US20040186166A1, “Cannabinoid analogs as peroxisome proliferator activated nuclear receptor gamma activators” (priority 2002, published 2004).

Legend:
mPPARγ1 = biological target: T1, mPPARγ1 (Mus musculus, UniProt P37238); experiment: Partial protease (trypsin) digestion assay, PPARγ; format: binding
T1 construct: made in house; host or cells: reticulocyte lysate in vitro transcription/translation (Promega) from pCMX-mPPARγ1
T1 sequence (P37238 1-475 isoform P37238-2): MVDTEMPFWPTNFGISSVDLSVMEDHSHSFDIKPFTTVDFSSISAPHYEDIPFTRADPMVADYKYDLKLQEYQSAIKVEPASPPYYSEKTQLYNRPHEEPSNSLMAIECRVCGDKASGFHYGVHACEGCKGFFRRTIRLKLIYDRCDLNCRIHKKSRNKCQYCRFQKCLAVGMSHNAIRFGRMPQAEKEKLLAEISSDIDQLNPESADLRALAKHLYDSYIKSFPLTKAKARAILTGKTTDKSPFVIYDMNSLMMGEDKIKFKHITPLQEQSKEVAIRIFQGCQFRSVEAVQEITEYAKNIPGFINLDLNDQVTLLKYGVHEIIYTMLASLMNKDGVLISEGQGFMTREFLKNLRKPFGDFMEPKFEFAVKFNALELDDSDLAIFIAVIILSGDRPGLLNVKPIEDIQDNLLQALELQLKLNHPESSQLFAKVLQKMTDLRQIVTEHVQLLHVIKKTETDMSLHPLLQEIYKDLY
Experimental: Partial protease digestion was carried out as described by Leng et. al. (J Steroid Biochem Mol Biol 46:643-61, 1993). PPAR proteins were made by in vitro transcription/translation reactions in reticulocyte lysate according to the manufacture's instructions (Promega). AJA, GW347845, or vehicle alone was incubated with the 35S-labeled PPARs at room temperature for one hour before trypsin digestion. Reactions were stopped by boiling in SDS-containing sample buffer, and lysates were subjected to SDS-PAGE and autoradiography.
To determine if AJA can bind to PPARγ, in vitro translated ^35S-labeled mPPARγ1 was incubated with AJA or a carrier vehicle before trypsin digestion. To test if AJA binds to PPARs, partial proteinase digestion assays were conducted as described previously (Leng et al., J Steroid Biochem Mol Biol 46:643-61, 1993). […] Such conformational change can be detected by limited proteinase digestion based on alteration of the accessibility of proteolytic sites on the surface of the receptors.
The PPAR proteins were synthesized and labeled with ^35S-methionine in reticulocyte lysate and incubated with AJA, GW347845, or vehicle alone at room temperature for one hour before trypsin digestion. […] The proteolytic patterns of PPAR proteins were then analyzed by SDS-PAGE and autoradiography, and compared with vehicle-treated control samples. […]

PPARδ = biological target: T2, PPARδ (Mus musculus, UniProt P35396); experiment: PPRE-TK-LUC reporter transient transfection, PPARδ; format: cell-based; settings: 20 μM AJA (FIG. 3C)
T2 construct: expressed in transfected cells; host or cells: HEK293 / HEK293T
T2 sequence (P35396 1-440): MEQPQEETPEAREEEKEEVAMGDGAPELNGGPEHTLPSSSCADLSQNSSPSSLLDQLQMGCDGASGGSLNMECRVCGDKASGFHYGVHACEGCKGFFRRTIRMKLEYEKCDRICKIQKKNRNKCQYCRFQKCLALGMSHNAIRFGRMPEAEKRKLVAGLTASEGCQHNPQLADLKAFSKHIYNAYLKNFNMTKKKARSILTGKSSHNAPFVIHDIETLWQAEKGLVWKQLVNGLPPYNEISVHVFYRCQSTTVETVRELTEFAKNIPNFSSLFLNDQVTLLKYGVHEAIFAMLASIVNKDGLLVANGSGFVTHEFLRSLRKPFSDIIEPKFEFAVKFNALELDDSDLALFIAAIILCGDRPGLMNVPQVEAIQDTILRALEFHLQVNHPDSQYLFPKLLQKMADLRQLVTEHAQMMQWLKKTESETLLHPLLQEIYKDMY
Experimental: For PPARγ activation assay, HEK293 cells were plated in 12-well cell culture plates and maintained in Dulbecco's modified Eagle's medium (DMEM) supplemented with 10% fetal bovine serum (FBS) at 37° C. under 5% CO2. Cells were changed to phenol red-free DMEM supplemented with 10% charcoal-stripped fetal bovine serum 3 hours before transfection by a standard calcium-phosphate precipitation method. Twelve hours after transfection, the cells were washed with phosphate-buffered saline (PBS) and fed again with fresh medium containing the indicated concentrations of compounds. After 36 hours, cells were harvested for β-galactosidase and luciferase activities as described previously (Li et al., Proc Natl Acad Sci USA 94:8479-84, 1997). The average normalized luciferase activity was determined via triplicate experiments. For IL-8 promoter assay, HeLa cells were maintained and transfected in the same way as described above. After transfection, cells were recovered for 4 hours before treatment with AJA, GW347845, or solvent. After 3-4 hours, cells were treated with or without 25 nM of phorbol myristate acetate (PMA) for 24 hours.
In an effort to confirm that AJA activates PPARγ selectively, the ability of AJA to activate PPARα and PPARδ was analyzed in a similar transient transfection assay.

In the case of `CCCCCCC(C)(C)c1cc(O)c2c(c1)OC(C)(C)[C@@H]1CC=C(C(=O)O)C[C@@H]21` [AJA, dimethylheptyl-THC-11-oic acid], the “trypsin-resistant PPARγ fragments (protection from trypsin digestion)” value (mPPARγ1; 20 μM AJA, 30 μg/ml trypsin, 30 or 60 min) is reported as “Two prominent trypsin-resistant fragments of 30 and 24 kDa”, the “proteinase-resistant PPARγ fragments, concentration dependence” value (mPPARγ1; 2, 20 and 100 μM AJA) is reported as “proteinase-resistant PPARγ fragments were observed” and the “activation of PPARδ” value (PPARδ) is reported as “neither did AJA activate PPARδ”.
